Laboratory results as given in patent US8633356B2, “Method for controlling root parasitic plants” (Riken, priority 2008, dated 2014).

How the values were obtained:
S. hermonthica seeds = test: Germination assay using S. hermonthica seeds; format: in vivo, Striga hermonthica; conditions: positive control, 10^−7 M (FIG. 2f)
Source text: The levels of strigolactones released to hydroponic culture media were estimated by germination stimulating activity using S. hermonthica seeds as described previously ^32 Strigolactones were identified and quantified on LC-MS/MS by comparing the retention time and full-scan spectrum with those of authentic standards. We synthesized deuterium-labeled epi-5DS (d1-epi-5DS) and used as an internal standard for quantitative analysis using LC-MS/MS. Germination assays using S. hermonthica were performed as described previously^32 For each bioassay, de-ionized water and (+)-strigol solution were used as negative and positive controls, respectively.

[1] = test system: axillary bud outgrowth of Arabidopsis; test: Axillary bud outgrowth (shoot branching) of Arabidopsis in hydroponic culture; format: in vivo, Arabidopsis thaliana; conditions: 5 μM in the hydroponic culture media
Method: Plants were then grown hydroponically in growth chambers. […] We used Arabidopsis thaliana ecotype Col-0 as the wild type and max mutants (FIG. 6). Seeds were sterilized in 1% sodium hypochlorite solution for 5 min, rinsed with sterile water, and stratified for one day at 4° C. […] Plants were then transferred to a glass pot containing 400 ml hydroponic solution^41 and grown under the same environmental condition for additional 15 days. The solution was renewed every 3 days. To measure germination stimulants, sterilized and stratified seeds were placed on glass beads (30 ml) wetted with 1/10 strength MS liquid media (10 ml) in a Petri dish (9 cm diameter) and grown for 14 days under the same conditions above. The culture media were collected and subjected to S. hermonthica germination assay.

[2] = test system: tiller bud outgrowth of rice
Method: Rice and Arabidopsis seeds were surface-sterilized and the seedlings were first grown aseptically on agar media. Plants were then grown hydroponically in growth chambers. For both rice and Arabidopsis, strigolactones were added to the hydroponic culture medium.
We used rice normal cultivars (Oryza sativa L. cv. Shiokari and cv. Nipponbare) and tillering dwarf mutants (FIG. 6) in this study. Rice seeds were washed in 70% ethanol for 30 sec, sterilized in 2.5% sodium hypochlorite solution for 15 min, rinsed with sterile water, and then imbibed at 28° C. in the dark for 2 days. Germinated seeds were transferred into hydroponic culture media^39 solidified with 0.6% agar (pH5.7) and cultured at 25° C. under fluorescence white light (150-200 μmol m^−2 s^−1) with a 16 h light/8 h dark photoperiod for 5 days. Each seedling was then transferred to a glass vial containing a sterilized hydroponic culture solution (13 ml), fixed with a piece of sponge at the root-shoot junction to the top of the vial, and grown under the same condition for additional 7 days (total 2 weeks). The hydroponic solution was supplemented every 3 days. For large-scale cultures, the 2-weeks-old seedlings were transferred into a 4-L porcelain pot containing the same hydroponic solution and grown under the same condition. After the transfer to pots, the solution was renewed weekly.
To further investigate the relationships between the D10/D17-derived branching inhibitor and strigolactones, we examined the effect of strigolactone treatment on rice d mutants.

D10 transcript = test: qRT-PCR of D10 transcript levels in rice roots; format: in vivo, Oryza sativa; conditions: roots of 8-day-old seedlings, 1 μM (+)-GR24 for 24 h (FIG. 3h)
Method: We performed quantitative reverse transcription-PCR (qRT-PCR) to determine D10 transcript levels, according to the method described before^38. Total RNA was extracted from roots using RNeasy Maxi kit (Qiagen). qRT-PCR was carried out to determine D10 transcript levels using gene specific primers and a Taq-Man probe (Table 1 as describe above). Ubiquitin expression was used as an internal standard.

| plant height of wild type seedlings ([2]; in vivo) | Compound | germination of S. hermonthica seeds (S. hermonthica seeds) | sensitivity of branching of max2 mutants [1] | enhanced branching phenotype of max3 and max4 mutants ([1]; 30-day-old plants) | tiller bud outgrowth at 1 μM ([2]; 1 μM, 2-week-old d10-1 and d17-1 seedlings) | lowest concentration at which the inhibitory effect on tiller bud outgrowth was detectable ([2]; 2-week-old d10-1 and d17-1 seedlings) | inhibition of tiller bud outgrowth ([2]; 2-week-old d10-1 and d17-1 seedlings, compound applied to the media) | effect on d3-1 mutant plants ([2]; 6-week-old d3-1, 2 μM in the culture media) | branching phenotype and plant height of d10-1 mutant ([2]; 6-week-old d10-1, 2 μM in the culture media) | sensitivity of tiller bud outgrowth of the d3-1 mutant ([2]; d3-1 mutant seedlings (defective in probable signaling component)) | morphological abnormalities in wild type seedlings after treatment ([2]; in vivo) | D10 transcript levels in d10-1 and wild type seedlings (D10 transcript) |
| --- | --- | --- | --- | --- | --- | --- | --- | --- | --- | --- | --- | --- |
|  | CC1=C[C@H](O/C=C2/C(=O)O[C@@H]3C4=C(C[C@H]23)[C@@H](O)CCC4(C)C)OC1=O [(+)-strigol, (+)-Strigol] | germination induced |  |  |  |  |  |  |  |  |  |  |
| did not change the plant height | CC1=C[C@H](O/C=C2/C(=O)O[C@@H]3c4ccccc4C[C@H]23)OC1=O [GR24] |  | insensitive | rescued | nearly fully inhibited | 10 nM | inhibited tiller bud outgrowth of 2-week-old d10-1 and d17-1 seedlings in a dose-dependent manner | no visible effect | complemented | insensitive | No morphological abnormalities were evident | decreased |
